Test results reported in PMC6606765, “Stargazin and γ4 slow the channel opening and closing rates of GluA4 AMPA receptors” (Scientific Reports, 2019).
Several values for one entry are separate records, joined by “and”; a condition that tells them apart may be missing. Identical values can stand only once.

Columns and labels:
GluA4/γ2 [1] = molecular target: T1, GluA4/γ2 (Rattus norvegicus, UniProt P19493); experiment: Laser-pulse photolysis of caged glutamate with whole-cell current recording (channel-opening kinetics); assay type: cell-based
T1 construct: expressed in transfected cells; host or cells: HEK-293S
T1 sequence (P19493 21-902 isoform P19493-2 limits assumed): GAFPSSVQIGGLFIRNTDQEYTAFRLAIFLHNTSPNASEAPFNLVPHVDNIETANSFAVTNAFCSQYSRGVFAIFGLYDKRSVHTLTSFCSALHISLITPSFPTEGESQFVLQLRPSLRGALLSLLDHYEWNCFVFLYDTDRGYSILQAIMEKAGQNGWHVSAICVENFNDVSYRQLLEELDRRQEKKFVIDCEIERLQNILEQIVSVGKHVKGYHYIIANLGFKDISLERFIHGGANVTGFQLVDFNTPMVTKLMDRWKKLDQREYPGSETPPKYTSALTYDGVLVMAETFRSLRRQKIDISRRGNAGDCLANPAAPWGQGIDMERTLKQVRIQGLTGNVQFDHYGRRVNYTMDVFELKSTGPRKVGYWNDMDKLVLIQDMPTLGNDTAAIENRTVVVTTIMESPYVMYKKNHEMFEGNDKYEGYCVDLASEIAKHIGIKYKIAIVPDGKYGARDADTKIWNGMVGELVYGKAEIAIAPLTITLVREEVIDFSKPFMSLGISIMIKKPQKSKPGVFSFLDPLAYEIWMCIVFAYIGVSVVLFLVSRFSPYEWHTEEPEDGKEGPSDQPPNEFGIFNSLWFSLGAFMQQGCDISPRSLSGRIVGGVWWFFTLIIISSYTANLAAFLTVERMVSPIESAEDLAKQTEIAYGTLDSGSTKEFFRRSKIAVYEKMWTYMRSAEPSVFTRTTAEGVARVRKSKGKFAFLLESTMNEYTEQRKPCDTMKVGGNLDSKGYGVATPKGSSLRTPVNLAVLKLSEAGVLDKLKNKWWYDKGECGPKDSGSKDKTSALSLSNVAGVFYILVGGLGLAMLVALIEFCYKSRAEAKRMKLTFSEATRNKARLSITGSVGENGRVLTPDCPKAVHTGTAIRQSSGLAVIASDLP
Method: (§1) The γ-2 and γ-4 plasmids were generously provided by Prof. Susumu Tomita. The flip isoform of GluA4[30] with and without a TARP was transiently expressed in HEK-293S cell. The tissue culture and transfection procedure were described before. In brief, HEK-293S cells were cultured in Dulbecco’s modified Eagle’s medium supplemented with 10% fetal bovine serum, 100 U/mL penicillin, and 100 μg/mL streptomycin in a 37 °C, 6% CO2, humidified incubator. In co-transfecting a TARP, we used 1:1 and 1:2 weight ratio of the plasmid of GluA4 to a TARP (GluA4 plasmid was 3–6 μg/35 mm dish). Co-transfection also included green fluorescent protein (GFP) and large T-antigen (TAg)[46]. We also added a 2,3-benzodiazepine inhibitor[47] after transfection to prevent cell toxicity due to transfection of TARP. Transfected cells were grown for >48 h before recording.
(§2) Briefly, the pipet solution or internal solution contained (in mM) 110 CsF, 30 CsCl, 4 NaCl, 0.5 CaCl2, 5 EGTA, and 10 HEPES (pH 7.4 adjusted by NaOH). The external cellular solution or bath solution contained (in mM) 150 NaCl, 3 KCl, 1 CaCl2, 1 MgCl2, and 10 HEPES (pH 7.4 adjusted by NaOH)[46]. The GFP fluorescence in transfected cells was visualized on an Axiovert S100 microscope with a fluorescent detection system from Carl Zeiss. The whole-cell current was recorded using an Axopatch-200B amplifier at a cutoff frequency of 2–20 kHz by a built-in, four-pole Bessel filter and digitized at 5–50 kHz sampling frequency using an Axon Digidata 1322 A. Unless otherwise noted, all experiments were performed with transfected HEK-293S cells voltage-clamped at −60 mV and at 22 °C.
(§3) The laser-pulse photolysis technique was used to measure the channel-opening kinetic constants of an AMPA receptor, as we previously reported. […] A Minilite II pulsed Q-switched Nd:YAG laser (Continuum, Santa Clara, CA) delivered single pulses at 355 nm with a pulse length of 8 ns.
(§4) The kop and kcl values were determined from the rising phase of a whole-cell current trace in a laser-pulse photolysis experiment. […] The observed first-order rate constant of channel opening, kobs, was estimated by using Eq. 22 It=Imax(1−e^−kobst) where It and Imax represent the whole-cell current amplitude at time t, and the maximum current amplitude, respectively. Based on the general mechanism of channel opening, Eq. 3 was derived to describe the relationship between kobs and ligand concentration:3 kobs=kcl+kop(L/L+K1)^n
(§5) In deriving Eq. 3, we assumed the rate of ligand binding was fast relative to the rate of channel opening.

GluA4/γ4 [2] = molecular target: T2, GluA4/γ4 (Rattus norvegicus, UniProt P19493); experiment: as above; assay type: cell-based
T2 construct: expressed in transfected cells; host or cells: HEK-293S
T2 sequence (P19493 21-902 isoform P19493-2 limits assumed): as above
Method: as §1, §2, §3, §4, §5

GluA4 homomeric channels [3] = molecular target: T3, GluA4 homomeric channels (Rattus norvegicus, UniProt P19493); experiment: as above; assay type: cell-based; settings: linear fit of kobs vs glutamate concentration, Eq. 3, ±SEM
T3 construct: expressed in transfected cells; host or cells: HEK-293S
T3 sequence (P19493 21-902 isoform P19493-2 limits assumed): as above
Method: as §1, §2, §3, §4, §5

GluA4/γ2 [4] = molecular target: T1, GluA4/γ2; experiment: Whole-cell current recording with fast solution flow (dose-response, desensitization) in transfected HEK-293 cells; assay type: cell-based
Method: as §1, §2, §3
(§6) Based on this general, minimal mechanism of channel opening, Eq. 1 was derived. In Eq. 1, IA is the observed amplitude of macroscopic current amplitude, IM is the current per mole of receptor, RM the number of moles of receptors on the cell surface, and Φ^−1 the channel opening equilibrium constant. A non-linear regression was performed to determine K1, along with other parameters, from a dose-response relationship. Each of the current traces was corrected for desensitization before it was used in calculating dose-response relationship[48].1 IA=IMRML^n/L^n+Φ(L+K1)^n

GluA4/γ4 [5] = molecular target: T2, GluA4/γ4; experiment: as above; assay type: cell-based
Method: as §1, §2, §3, §6

GluA4 homomeric channels [6] = molecular target: T3, GluA4 homomeric channels; experiment: as above; assay type: cell-based
Method: as §1, §2, §3, §6

GluA4 homomeric channels [7] = molecular target: T3, GluA4 homomeric channels; parameters: method as in PMID 15823042; settings: GluA4 alone; cited from earlier work
[8] = Table S2A nonlinear fitting, kcl fixed 1000 s-1
[9] = Table S2A nonlinear fitting, kcl fixed 1200 s-1
[10] = Table S2A nonlinear fitting, kcl fixed 1400 s-1
[11] = linear fit of kobs vs glutamate concentration, Eq. 3, ±SEM
[12] = Table S3A nonlinear fitting, kcl fixed 900 s-1
[13] = Table S3A nonlinear fitting, kcl fixed 1100 s-1
[14] = Table S3A nonlinear fitting, kcl fixed 1300 s-1
[15] = best fit of dose-response with Eq. 1
[16] = mean ±SD, saturated whole-cell responses evoked by 10 and 20 mM glutamate, HEK-293S, −60 mV, 22 °C

For `N[C@@H](CCC(=O)O)C(=O)O` [glutamate], the “Popen (channel-opening probability)” value (GluA4/γ2 [1]; Popen = kop/(kop + kcl)) was ~ 0.93, the “kop, final output Ave.” value (GluA4/γ2 [1]; [8]) was 17591 s⁻¹ and the “n, final output Ave.” value (GluA4/γ2 [1]; [8]) was 1.59. For the same compound, the “kop, final output Ave.” value (GluA4/γ2 [1]; [9]) was 19225 s⁻¹, the “n, final output Ave.” value (GluA4/γ2 [1]; [9]) was 1.88 and the “kop, final output Ave.” value (GluA4/γ2 [1]; [10]) was 22936 s⁻¹. For the same compound, the “n, final output Ave.” value (GluA4/γ2 [1]; [10]) was 2.11, the “kop, final output Ave.” value (GluA4/γ2 [1]; Table S2B nonlinear fitting, n fixed 2, kcl fixed 1000 s-1) was 15488 s⁻¹ and the “kop, final output Ave.” value (GluA4/γ2 [1]; Table S2B nonlinear fitting, n fixed 2, kcl fixed 1200 s-1) was 15607 s⁻¹. For the same compound, the “kop, final output Ave.” value (GluA4/γ2 [1]; Table S2B nonlinear fitting, n fixed 2, kcl fixed 1400 s-1) was 18961 s⁻¹, the “kcl (channel-closing rate constant)” value (GluA4/γ2 [1]; [11]) was 1.2 ± 0.1 x 10^3 s^−1 and 1.17 ± 0.11 x 10^3 s^−1 and the “kop (channel-opening rate constant)” value (GluA4/γ2 [1]; [11]) was 1.3 ± 0.1 x10^4 s^−1 and 1.32 ± 0.12 x10^4 s^−1. For the same compound, the “Popen (channel-opening probability)” value (GluA4/γ4 [2]; Popen = kop/(kop + kcl)) was ~ 0.93, the “kop, final output Ave.” value (GluA4/γ4 [2]; [12]) was 16862 s⁻¹ and the “n, final output Ave.” value (GluA4/γ4 [2]; [12]) was 1.99. The “kop, final output Ave.” value (GluA4/γ4 [2]; [13]) was 16375 s⁻¹, the “n, final output Ave.” value (GluA4/γ4 [2]; [13]) was 2.20 and the “kop, final output Ave.” value (GluA4/γ4 [2]; [14]) was 15640 s⁻¹. For the same compound, the “n, final output Ave.” value (GluA4/γ4 [2]; [14]) was 2.41, the “kop, final output Ave.” value (GluA4/γ4 [2]; Table S3B nonlinear fitting, n fixed 2, kcl fixed 900 s-1) was 15152 s⁻¹ and the “kop, final output Ave.” value (GluA4/γ4 [2]; Table S3B nonlinear fitting, n fixed 2, kcl fixed 1100 s-1) was 13642 s⁻¹. For the same compound, the “kop, final output Ave.” value (GluA4/γ4 [2]; Table S3B nonlinear fitting, n fixed 2, kcl fixed 1300 s-1) was 11557 s⁻¹, the “kcl (channel-closing rate constant)” value (GluA4/γ4 [2]; [11]) was 1.1 ± 0.1 x 10^3 s^−1 and 1.08 ± 0.05 x 10^3 s^−1 and the “kop (channel-opening rate constant)” value (GluA4/γ4 [2]; [11]) was 1.7 ± 0.2 x10^4 s^−1 and 1.70 ± 0.15 x10^4 s^−1. For the same compound, the “kcl (channel-closing rate constant)” value (GluA4 homomeric channels [3]) was 3.4 ± 0.1 x 10^3 s^−1 and 3.39 ± 0.11 x 10^3 s^−1, the “kop (channel-opening rate constant)” value (GluA4 homomeric channels [3]) was 6.4 ± 0.4 x10^4 s^−1 and 6.41 ± 0.44 x10^4 s^−1 and the “Φ (Φ^−1 = channel opening equilibrium constant)” value (GluA4/γ2 [4]; [15]) was 0.41 ± 0.95. The “Hill Coefficient” value (GluA4/γ2 [4]; dose-response curve) was 1.07 ± 0.14, the “kdes (maximum desensitization rate constant)” value (shortened to “kdes”) (GluA4/γ2 [4]; [16]) was 135 ± 11 s⁻¹ and the “Φ (Φ^−1 = channel opening equilibrium constant)” value (GluA4/γ4 [5]; [15]) was 0.39 ± 1.36. For the same compound, the “Hill Coefficient” value (GluA4/γ4 [5]; dose-response curve) was 1.08 ± 0.10, the “kdes” value (GluA4/γ4 [5]; [16]) was 90 ± 12 s⁻¹ and the “Φ (Φ^−1 = channel opening equilibrium constant)” value (GluA4 homomeric channels [6]; [15]) was 0.36 ± 0.88. For the same compound, the “Hill Coefficient” value (GluA4 homomeric channels [6]; dose-response curve) was 2.18 ± 0.21, the “kdes” value (GluA4 homomeric channels [6]; [16]) was 181 ± 7 s⁻¹ and the “Popen (channel-opening probability)” value (GluA4 homomeric channels [7]) was 0.96.
